Assay results from patent US20100137170A1, “DUAL USE WELL TREATMENT COMPOSITION” (JACAM CHEMICALS, LLC, priority 2008, published 2010).

Key:
[1] = substitute ingredients in lieu of morpholine in THP/THPS-amino phosophono chelant compositions (crystal deposition); format: physicochemical; conditions: ingredients employed alone and in various combinations in THP/THPS-amino phosophono chelant compositions
From the text: During the course of development of the present invention, a number of different ingredients were used in lieu of morpholine in THP/THPS-amino phosophono chelant compositions. None of these substitute materials were successful.

[2] = accelerated −30° F. storage test (crystal formation); format: physicochemical; conditions: 1.5% by volume in the Example composition
Experimental: Additional morpholine derivatives were also tested in lieu of the morpholine in the above table, at the same amount (1.5% by volume) and by the accelerated −30° F. storage test. These derivatives were N-methylmorpholine, N-ethylmorpholine, N-methylmorpholine oxide, and N-aminopropylmorpholine.

SMILES: CC(C)O [isopropyl alcohol]
- crystal deposition of product with ingredient used in lieu of morpholine [1]: prone to crystal deposition

SMILES: C[N+]1([O-])CCOCC1 [N-methylmorpholine oxide]
- result of accelerated storage test with derivative in lieu of morpholine [2]: satisfactory results

SMILES: NCCCN1CCOCC1 [N-aminopropylmorpholine]
- result of accelerated storage test with derivative in lieu of morpholine [2]: satisfactory results

SMILES: N [ammonium hydroxide]
- crystal deposition of product with ingredient used in lieu of morpholine [1]: prone to crystal deposition

SMILES: CN1CCOCC1 [N-methylmorpholine]
- result of accelerated storage test with derivative in lieu of morpholine [2]: satisfactory results

SMILES: CCN1CCOCC1 [N-ethylmorpholine]
- result of accelerated storage test with derivative in lieu of morpholine [2]: satisfactory results

SMILES: [Na+].[OH-] [sodium hydroxide]
- crystal deposition of product with ingredient used in lieu of morpholine [1]: prone to crystal deposition

SMILES: CO [methyl alcohol]
- crystal deposition of product with ingredient used in lieu of morpholine [1]: prone to crystal deposition
